According to patent publication US5945436A, “Pyridylmethyl nitriles, amides and thioamides useful as fungicides” (Uniroyal Chemical Company, Inc., priority 1997, dated 1999):

Experiments:
Erysiphe cichoracearum = assay: Powdery mildew of cucumber, systemic root uptake (CMS); format: in vivo; conditions: 45 ml of 250 mg/l, 8 days after inoculation
Procedure, shortened: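 Pot soil of barley (BMS) and cucumber (CMS) plants was drenched with 45 ml of a 250 mg/l acetone/Tween 20 aqueous emulsion, with untreated plants as controls. Disease was scored on a rating scale that included intermediate grades.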

Fusarium oxysporum = assay: Fungal growth inhibition, treated disc on agar (FUS OXY); format: cell-based; conditions: disc dipped in 500 mg/l, 29° C.; for inhibition at 500 µg/mL: Fusarium oxysporum, read-out: Percent Growth Inhibition, FUS OXY
[1] = test system: Cercosporidium personatum; assay: Fungal germination and growth, treated disc on agar, scored (CER PER); format: cell-based; set-up: key: 100: Complete inhibition of germination and growth.; 80: Nearly complete inhibition but some growth.; 50: Partial inhibition of growth or, early complete inhibition but later growth begins.; 20: Some inhibition of growth, but not significant.; 0: No inhibition of growth; conditions: disc dipped in 500 mg/l, 29° C., numerical score 0-100, spore suspension
Description: Filter paper discs, each 11 mm. in diameter, were dipped in each of the test solutions. The discs were allowed to air dry to drive off the acetone solvent. A number of untreated discs were used as controls. The treated and untreated discs were then placed on agar plates and one of the following fungus species: Septoria nodorum (SEP NOD), Botrytis cinerea (BOT CIN), Fusarium oxysporum (FUS OXY), Pythium ultimum ([…]), Rhizoctonia solani (RHI SOL), Colletotrichum gossypii (COL GOS), and Scierotinia minor (SCL MIN), was added to the center of each disc in the form of a culture plug with the fungus mat in contact with the paper of the test disc. Cercosporidium personatum (CER PER), was added to discs as a spore suspension (20,000 spores/ml) to the disc (two drops of spore suspension per disc), rather than a mycelial culture plug. The plates were then incubated at 29° C. in an oven. In the case of the Cercosporidium personatum (CER PER) fungi, scoring was done on a numerical basis as follows: 100=Complete inhibition of germination and growth. 80=Nearly complete inhibition but some growth. 50=Partial inhibition of growth or, early complete inhibition but later growth begins. 20=Some inhibition of growth, but not significant. 0=No inhibition of growth. The results of all the above tests appear in Table III below under the headings "SEP NOD," "BOT CIN," "FUS OXY," "[…]" "COL GOS" and "CER PER".

Botrytis cinerea = assay: Fungal growth inhibition, treated disc on agar (BOT CIN); format: cell-based; conditions: disc dipped in 500 mg/l, 29° C.; for inhibition at 500 µg/mL: Botrytis cinerea, read-out: Percent Growth Inhibition, BOT CIN
Description: (§1) The treated and untreated discs were then placed on agar plates and one of the following fungus species: Septoria nodorum (SEP NOD), Botrytis cinerea (BOT CIN), Fusarium oxysporum (FUS OXY), Pythium ultimum (PYT ULT), Rhizoctonia solani (RHI SOL), Colletotrichum gossypii (COL GOS), and Scierotinia minor (SCL MIN), was added to the center of each disc in the form of a culture plug with the fungus mat in contact with the paper of the test disc. Cercosporidium personatum (CER PER), was added to discs as a spore suspension (20,000 spores/ml) to the disc (two drops of spore suspension per disc), rather than a mycelial culture plug. The plates were then incubated at 29° C. in an oven.
(§2) With the exception of the discs containing Cercosporidium personatum, the discs were evaluated by first measuring the radius from the center of the fungus colony on the treated discs and on the untreated discs. Percent growth inhibition of each of the compounds tested was determined as a function of the difference between the radius of the fungus colony on the treated disc versus the radius of the fungus colony on the untreated disc.

Uromyces phaseoli = assay: Bean rust fungus eradicant test (URO PHA); format: in vivo; conditions: pinto bean, eradicant spray 2 days after inoculation, 1,000 mg/l; for pest or weed control at 1000 µg/mL: Uromyces phaseoli, 216 h, read-out: Percent Reduction of Disease, URO PHA
Procedure, shortened: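 Seven-day-old pinto bean plants (Phaseolus vulgaris, primary leaf) were inoculated with 20,000 spores/ml, held 24 h at 99% humidity and 21° C., then sprayed two days post-inoculation with acetone/TWEEN 20 emulsions at 1,000 mg/l. After nine days in a 21° C. greenhouse, disease was scored as percent reduction versus unsprayed controls.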

Erysiphe graminis = assay: Powdery mildew in barley, foliar application (ERY GRA); format: in vivo; conditions: foliar, 1,000 mg/l, 8 days after inoculation; for pest or weed control at 1000 µg/mL: Blumeria graminis, foliar, 192 h, read-out: Percent Reduction of Disease, ERY GRA
Procedure, shortened: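 'Robust' barley plants sprayed with acetone/TWEEN 20 aqueous emulsion at 1,000 mg/l, dried, then kept at 21° C in a greenhouse. Inoculated by distributing Erysiphe graminis spores from infected plants. Percent control computed from disease scores vs unsprayed control pots.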

Septoria nodorum = assay: Fungal growth inhibition, treated disc on agar (SEP NOD); format: cell-based; conditions: disc dipped in 500 mg/l, 29° C.; for inhibition at 500 µg/mL: Parastagonospora nodorum, read-out: Percent Growth Inhibition, SEP NOD
Description: as §1, §2

Row | Structure (SMILES) | Percent Reduction of Disease, CMS (Erysiphe cichoracearum) [%] | Percent Growth Inhibition, FUS OXY (Fusarium oxysporum) [%] | CER PER inhibition score [1] | Percent Growth Inhibition, BOT CIN (Botrytis cinerea) [%] | Percent Reduction of Disease, URO PHA (Uromyces phaseoli) [%] | Percent Reduction of Disease, ERY GRA (Erysiphe graminis) [%] | Percent Growth Inhibition, SEP NOD (Septoria nodorum) [%] | inhibition at 500 µg/mL (Fusarium oxysporum) [%] | inhibition at 500 µg/mL (Botrytis cinerea) [%] | pest or weed control at 1000 µg/mL (Uromyces phaseoli) [%] | pest or weed control at 1000 µg/mL (Erysiphe graminis) [%] | inhibition at 500 µg/mL (Septoria nodorum) [%]
1 | CCCCCC(C#N)(CCc1ccc(OC)cc1)c1ccccn1 (centres unmarked) [Compound 30] | 0 | 100 | 0 | 88 | 100 | 100 | 96 | – | – | – | – | –
2 | CCCCC(C#N)(CCc1ccc(OC)cc1)c1ccccn1 (centres unmarked) [Compound 31] | 0 | 83 | 0 | 89 | 35 | 20 | 81 | – | – | – | – | –
3 | N#CC(CCCc1ccc(Cl)cc1)(CC1CC1)c1ccccn1 (centres unmarked) [Compound 32] | 0 | 100 | 0 | 96 | 85 | 100 | 89 | – | – | – | – | –
4 | C=CCC(C#N)(CCc1ccc(C)cc1)c1cccnc1 (centres unmarked) [Compound 33] | 20 | – | 0 | – | – | – | – | 100 | 98 | 100 | 100 | 96
5 | CCCCC(C#N)(CCc1ccc(C)cc1)c1cccnc1 (centres unmarked) [Compound 34] | 20 | – | 0 | – | – | – | – | 100 | 100 | 100 | 100 | 100
6 | CCCCC(C#N)(CCc1ccc(OCC)cc1)c1cccnc1 (centres unmarked) [Compound 35] | 0 | 30 | 0 | – | 90 | – | – | – | 91 | – | 85 | 90
7 | CCCCCCC(C#N)(CCc1ccc(OC)cc1)c1cccnc1 (centres unmarked) [Compound 36] | 0 | – | 0 | – | – | – | – | 80 | 45 | 100 | 85 | 96
8 | COc1ccc(CCC(C#N)(CC2CC2)c2cccnc2)cc1 (centres unmarked) [Compound 37] | 0 | – | 0 | – | – | – | – | 100 | 100 | 92 | 92 | 100
9 | C#CCC(C#N)(CCc1ccc(OC)cc1)c1cccnc1 (centres unmarked) [Compound 38] | 0 | – | 0 | – | – | – | – | 100 | 100 | 0 | 83 | 100
10 | CC(C)CC(C#N)(CCc1ccc(F)cc1)c1cccnc1 (centres unmarked) [Compound 39] | 0 | – | 0 | – | – | – | – | 30 | 57 | 92 | 92 | 8
11 | C=CCC(C#N)(CCc1ccc(OCC)cc1)c1cccnc1 (centres unmarked) [Compound 40] | 0 | – | 0 | – | – | – | – | 100 | 100 | 17 | 67 | 100
12 | C#CCC(C#N)(CCc1ccc(F)cc1)c1cccnc1 (centres unmarked) [Compound 41] | 0 | – | 0 | – | – | – | – | 30 | 32 | 0 | 92 | 63
13 | CCCCC(C#N)(CCc1ccc(OCC)cc1)c1cccnc1.Cl (stereo not drawn) [Compound 42, α-butyl-4-ethoxy-α-(3-pyridinyl)-benzenebutanenitrile hydrochloride] | 0 | 100 | 0 | 100 | 33 | 92 | 100 | – | – | – | – | –
14 | CCOc1ccc(CCC(C#N)(CC(C)C)c2cccnc2)cc1 (centres unmarked) [Compound 43] | 0 | – | 100 | – | – | – | – | 100 | 100 | 83 | 92 | 100
15 | CCCCCCC(C#N)(CCc1ccc(OCC)cc1)c1cccnc1 (centres unmarked) [Compound 44] | 0 | – | 100 | – | – | – | – | 8 | 43 | 92 | 83 | 100
16 | CCCCCCC(C#N)(CCc1ccc(F)cc1)c1cccnc1 (centres unmarked) [Compound 45] | 67 | – | 100 | – | – | – | – | 14 | 100 | 92 | 92 | 100
17 | CCCC(C#N)(CCc1ccc(OCC)cc1)c1cccnc1 (centres unmarked) [Compound 46] | 0 | – | 0 | – | – | – | – | 100 | 100 | 33 | 92 | 100
